Measured values: patent US9635859B2, “Pesticidal compositions and processes related thereto” (Dow AgroSciences LLC, priority 2012, dated 2017)

System: Beet Armyworm (Spodoptera exigua)
Test: Bioassays on BAW, 128-well diet tray assay
Format: in vivo
Settings: percent mortality, second instar larvae, 50 μg/cm^2 on artificial diet, five to seven days, 25° C.; Table 3
Protocol: Certain molecules disclosed in this document were tested against BAW and CEW and CL using procedures described in the following examples. In the reporting of the results, the “BAW & CEW & CL Rating Table” was used (See Table Section).
Bioassays on BAW (Spodoptera exigua)
Bioassays on BAW were conducted using a 128-well diet tray assay. one to five second instar BAW larvae were placed in each well (3 mL) of the diet tray that had been previously filled with 1 mL of artificial diet to which 50 μg/cm^2 of the test compound (dissolved in 50 μL of 90:10 acetone-water mixture) had been applied (to each of eight wells) and then allowed to dry. Trays were covered with a clear self-adhesive cover, and held at 25° C., 14:10 light-dark for five to seven days. Percent mortality was recorded for the larvae in each well; activity in the eight wells was then averaged. The results are indicated in the table entitled “Table 3: Assay Results” (See Table Section).

| SMILES | BAW Rating |
| --- | --- |
| Cc1cc(/C=C/C(c2cc(Cl)cc(Cl)c2)C(F)(F)F)ccc1C(=O)NCc1nnc(C2CC2)o1 (stereo not drawn) [AC89, (E)-N-((5-Cyclopropyl-1,3,4-oxadiazol-2-yl)methyl)-4-(3-(3,5-dichlorophenyl)-4,4,4-trifluorobut-1-en-1-yl)-2-methylbenzamide] | A (50-100) |
| FC(F)(F)CNC(=S)CNC(=S)c1ccc(/C=C/C(c2cc(Cl)c(Cl)c(Cl)c2)C(F)(F)F)cc1Br (stereo not drawn) [AC90, (E)-2-Bromo-N-(2-thioxo-2-((2,2,2-trifluoroethyl)amino)ethyl)-4-(4,4,4-trifluoro-3-(3,4,5-trichlorophenyl)but-1-en-1-yl)benzothioamide] | A (50-100) |
| O=C(CNC(=S)c1ccc(/C=C/C(c2cc(Cl)c(Cl)c(Cl)c2)C(F)(F)F)cc1Br)NCC(F)(F)F (stereo not drawn) [AC91, (E)-2-(2-Bromo-4-(4,4,4-trifluoro-3-(3,4,5-trichlorophenyl)but-1-en-1-yl)phenylthioamido)-N-(2,2,2-trifluoroethyl)acetamide] | A (50-100) |
| O=C(NCC(=S)NCC(F)(F)F)c1ccc(/C=C/C(c2cc(Cl)c(Cl)c(Cl)c2)C(F)(F)F)cc1Br (stereo not drawn) [AC92, (E)-2-Bromo-N-(2-thioxo-2-((2,2,2-trifluoroethyl)amino)ethyl)-4-(4,4,4-trifluoro-3-(3,4,5-trichlorophenyl)but-1-en-1-yl)benzamide] | A (50-100) |
| Cc1cc(/C=C\C(c2cc(Cl)cc(Cl)c2)C(F)(F)F)ccc1C(=O)NCC(=O)NC1CC1 (stereo not drawn) [AC93] | A (50-100) |
| O=C(CNC(=O)c1ccc(/C=C\C(c2cc(Cl)c(Cl)c(Cl)c2)C(F)(F)F)cc1Br)NCC(F)(F)F (stereo not drawn) [AC95, (Z)-2-Bromo-N-(2-oxo-2-((2,2,2-trifluoroethyl)amino)ethyl)-4-(4,4,4-trifluoro-3-(3,4,5-trichlorophenyl)but-1-en-1-yl)benzamide] | A (50-100) |
| O=C(CNC(=O)c1ccc(/C=C/C(c2cc(Cl)c(F)c(Cl)c2)C(F)(F)F)cc1[N+](=O)[O-])NCC(F)(F)F (stereo not drawn) [AC98] | A (50-100) |
| O=C(CNC(=O)c1ccc(/C=C/C(c2ccc(F)c(Cl)c2)C(F)(F)F)cc1Br)NCC(F)(F)F (stereo not drawn) [AC99] | A (50-100) |
| CC(=O)N1CCC(NC(=O)c2ccc(/C=C/C(c3cc(Cl)c(Cl)c(Cl)c3)C(F)(F)F)cc2Br)CC1 (stereo not drawn) [AC103, (E)-N-(1-Acetylpiperidin-4-yl)-2-bromo-4-(4,4,4-trifluoro-3-(3,4,5-trichlorophenyl)but-1-en-1-yl)benzamide] | A (50-100) |
| O=C(NC1CCN(C(=O)CC(F)(F)F)CC1)c1ccc(/C=C/C(c2cc(Cl)c(Cl)c(Cl)c2)C(F)(F)F)cc1Br (stereo not drawn) [AC104, (E)-2-Bromo-4-(4,4,4-trifluoro-3-(3,4,5-trichlorophenyl)but-1-en-1-yl)-N-(1-(3,3,3-trifluoropropanoyl)piperidin-4-yl)benzamide] | A (50-100) |
| CN1CCC(NC(=O)c2ccc(/C=C/C(c3cc(Cl)c(Cl)c(Cl)c3)C(F)(F)F)cc2Br)CC1 (stereo not drawn) [AC106, (E)-2-Bromo-N-(1-methylpiperidin-4-yl)-4-(4,4,4-trifluoro-3-(3,4,5-trichlorophenyl)but-1-en-1-yl)benzamide] | A (50-100) |
| N#CCN1CCC(NC(=O)c2ccc(/C=C/C(c3cc(Cl)c(Cl)c(Cl)c3)C(F)(F)F)cc2Br)CC1 (stereo not drawn) [AC107] | B (More than 0-Less than 50) |
| O=C(NC1CCN(C2COC2)CC1)c1ccc(/C=C/C(c2cc(Cl)c(Cl)c(Cl)c2)C(F)(F)F)cc1Br (stereo not drawn) [AC108, (E)-2-Bromo-N-(1-(oxetan-3-yl)piperidin-4-yl)-4-(4,4,4-trifluoro-3-(3,4,5-trichlorophenyl)but-1-en-1-yl)benzamide] | B (More than 0-Less than 50) |
| CONC(=O)CNC(=O)c1ccc(/C=C/C(c2cc(Cl)c(Cl)c(Cl)c2)C(F)(F)F)cc1Br (stereo not drawn) [AC110] | A (50-100) |
| C=CCNC(=O)CNC(=O)c1ccc(/C=C/C(c2cc(Cl)c(Cl)c(Cl)c2)C(F)(F)F)cc1Br (stereo not drawn) [AC111] | A (50-100) |
| O=C(NCCc1ccc(Cl)nc1)c1ccc(/C=C/C(c2cc(Cl)c(Cl)c(Cl)c2)C(F)(F)F)cc1Br (stereo not drawn) [AC113] | B (More than 0-Less than 50) |
| O=C(NC1CCNCC1)c1ccc(/C=C/C(c2cc(Cl)c(Cl)c(Cl)c2)C(F)(F)F)cc1Br (stereo not drawn) [AC114, (E)-2-Bromo-N-(piperidin-4-yl)-4-(4,4,4-trifluoro-3-(3,4,5-trichlorophenyl)but-1-en-1-yl)benzamide] | A (50-100) |
| Cc1cc(/C=C/C(c2cc(Cl)cc(Cl)c2)C(F)(F)F)ccc1C(=S)NCc1ccc(Cl)nc1 (stereo not drawn) [AC115, (E)-N-((6-Chloropyridin-3-yl)methyl)-4-(3-(3,5-dichlorophenyl)-4,4,4-trifluorobut-1-en-1-yl)-2-methylbenzothioamide] | A (50-100) |
| Cc1cc(/C=C/C(c2cc(Cl)cc(Cl)c2)C(F)(F)F)ccc1C(=O)N(C)Cc1ccc(Cl)nc1 (stereo not drawn) [AC117] | A (50-100) |
| Cc1cc(/C=C/C(c2cc(Cl)cc(Cl)c2)C(F)(F)F)ccc1C(=O)NCC1CCCO1 (stereo not drawn) [AC118] | A (50-100) |
| O=C(CC(F)(F)F)NC1CCCc2cc(/C=C/C(c3cc(Cl)c(Cl)c(Cl)c3)C(F)(F)F)ccc21 (stereo not drawn) [BC5] | A (50-100) |
| O=C(NC1CCc2cc(/C=C/C(c3cc(Cl)c(Cl)c(Cl)c3)C(F)(F)F)ccc21)C1CC1 (stereo not drawn) [BC6] | A (50-100) |
| O=C(NC1CCCc2cc(/C=C/C(c3cc(Cl)c(Cl)c(Cl)c3)C(F)(F)F)ccc21)C1CC1 (stereo not drawn) [BC7] | A (50-100) |
| O=C(CC(F)(F)F)NC1CCc2cc(/C=C/C(c3cc(Cl)c(F)c(Cl)c3)C(F)(F)F)ccc21 (stereo not drawn) [BC8] | A (50-100) |

| SMILES | BAW Rating |
| --- | --- |
| O=C(Cc1ccc(Cl)nc1)NC1CCc2cc(/C=C/C(c3cc(Cl)c(F)c(Cl)c3)C(F)(F)F)ccc21 (stereo not drawn) [BC9] | A (50-100) |
| Fc1c(Cl)cc(C(/C=C/c2ccc3c(c2)CCC3NCCC(F)(F)F)C(F)(F)F)cc1Cl (stereo not drawn) [BC10, (E)-5-(3-(3,5-Dichloro-4-fluorophenyl)-4,4,4-trifluorobut-1-en-1-yl)-N-(3,3,3-trifluoropropyl)-2,3-dihydro-1H-inden-1-amine] | A (50-100) |
| O=C(CC(F)(F)F)NCC(=O)n1ccc2cc(/C=C/C(c3cc(Cl)c(F)c(Cl)c3)C(F)(F)F)ccc21 (stereo not drawn) [BC13, (E)-N-(2-(5-(3-(3,5-Dichloro-4-fluorophenyl)-4,4,4-trifluorobut-1-en-1-yl)-1H-indol-1-yl)-2-oxoethyl)-3,3,3-trifluoropropanamide] | A (50-100) |
| O=C(Cn1ncc2cc(/C=C/C(c3cc(Cl)c(F)c(Cl)c3)C(F)(F)F)ccc2c1=O)NCC(F)(F)F (stereo not drawn) [BC14, (E)-2-(6-(3-(3,5-Dichloro-4-fluorophenyl)-4,4,4-trifluorobut-1-en-1-yl)-1-oxophthalazin-2(1H)-yl)-N-(2,2,2-trifluoroethyl)acetamide] | A (50-100) |
| O=C(NCc1ccc(/C=C/C(c2cc(Cl)cc(Cl)c2)C(F)(F)F)cc1)C1CC1 (stereo not drawn) [CC2] | A (50-100) |
| O=C(CC(F)(F)F)NCc1ccc(/C=C/C(c2cc(Cl)cc(Cl)c2)C(F)(F)F)cc1 (stereo not drawn) [CC3] | A (50-100) |
| CCC(=O)NCc1ccc(/C=C/C(c2cc(Cl)cc(Cl)c2)C(F)(F)F)cc1 (stereo not drawn) [CC4] | A (50-100) |
| O=C(NCc1ccc(/C=C/C(c2cc(Cl)c(Cl)c(Cl)c2)C(F)(F)F)cc1)C1CC1 (stereo not drawn) [CC5] | A (50-100) |
| O=C(CC(F)(F)F)NCc1ccc(/C=C/C(c2cc(Cl)c(Cl)c(Cl)c2)C(F)(F)F)cc1 (stereo not drawn) [CC6] | A (50-100) |
| CC(=O)NCc1ccc(/C=C/C(c2cc(Cl)cc(Cl)c2)C(F)(F)F)cc1Cl (stereo not drawn) [CC7, (E)-N-(2-Chloro-4-(3-(3,5-dichlorophenyl)-4,4,4-trifluorobut-1-en-1-yl)benzyl)acetamide] | A (50-100) |
| O=C(NCc1ccc(/C=C/C(c2cc(Cl)cc(Cl)c2)C(F)(F)F)cc1Cl)C1CC1 (stereo not drawn) [CC8] | A (50-100) |
| O=C(CC(F)(F)F)NCc1ccc(/C=C/C(c2cc(Cl)cc(Cl)c2)C(F)(F)F)cc1Cl (stereo not drawn) [CC9] | A (50-100) |
| O=C(NCc1ccc(/C=C/C(c2cc(Cl)c(Cl)c(Cl)c2)C(F)(F)F)cc1Cl)C1CC1 (stereo not drawn) [CC11] | A (50-100) |
| O=C(Cc1ccc(Cl)nc1)NCc1ccc(/C=C/C(c2cc(Cl)c(Cl)c(Cl)c2)C(F)(F)F)cc1Cl (stereo not drawn) [CC14] | A (50-100) |
| O=C(NCc1ccc(/C=C/C(c2cc(Cl)c(F)c(Cl)c2)C(F)(F)F)cc1Cl)C1CC1 (stereo not drawn) [CC15] | A (50-100) |
| O=C(NCc1ccc(/C=C/C(c2ccc(Cl)c(Cl)c2)C(F)(F)F)cc1Cl)C1CC1 (stereo not drawn) [CC17] | A (50-100) |
| O=C(CC(F)(F)F)NCc1ccc(/C=C/C(c2ccc(Cl)c(Cl)c2)C(F)(F)F)cc1Cl (stereo not drawn) [CC18] | A (50-100) |
| CSCCC(=O)NCc1ccc(/C=C/C(c2cc(Cl)c(Cl)c(Cl)c2)C(F)(F)F)cc1Cl (stereo not drawn) [CC19] | A (50-100) |
| FC(F)(F)C(/C=C/c1ccc(CNC(=S)C2CC2)c(Cl)c1)c1cc(Cl)c(Cl)c(Cl)c1 (stereo not drawn) [CC20] | A (50-100) |
| O=C(NCc1ccc(/C=C/C(c2cc(Cl)cc(Cl)c2)C(F)(F)F)cc1C(F)(F)F)C1CC1 (stereo not drawn) [CC21] | A (50-100) |
| O=C(NCc1ccc(/C=C/C(c2cc(Cl)c(Cl)c(Cl)c2)C(F)(F)F)cc1C(F)(F)F)C1CC1 (stereo not drawn) [CC22] | A (50-100) |
| O=C(NCc1ccc(/C=C/C(c2cc(Cl)c(Cl)c(Cl)c2)C(F)(F)F)cc1C(F)(F)F)c1cccnc1 (stereo not drawn) [CC23] | A (50-100) |
| O=C(CC(F)(F)F)NCc1ccc(/C=C/C(c2cc(Cl)c(Cl)c(Cl)c2)C(F)(F)F)cc1C(F)(F)F (stereo not drawn) [CC24] | A (50-100) |
| O=C(CC(F)(F)F)NCc1ccc(/C=C/C(c2cc(Cl)c(Cl)c(Cl)c2)C(F)(F)F)cc1Br (stereo not drawn) [CC25] | A (50-100) |
